What all share (type): in vivo, Wistar male rats
For experiment [1], the system named is rats chronically treated with alcohol. Description: alcohol withdrawal syndrome: convulsions on sound stimulation (electric bell, 100 dB, 1 min). The following applies: 100 mg/kg intraperitoneal, eight hours after suspension of ethanol; test one hour after treatment; saline group 9/10. On the procedure:
The experiment was performed in Wistar male rats housed in groups of 5 per cage under constant light-dark alternation at 21°C and fed with standard laboratory feed. The animals were chronically administered 10% ethanol ad lib. for 6 months.
Eight hours after suspension of ethanol administration the animals were divided into 4 groups of 10 rats each. The first group (A) were administered saline solution (15 ml/kg) intraperitoneally, the second group (B) VCGB (100 mg/kg), again intraperitoneally, the third group (C) GHB (100 mg/kg) and the last group (D) IVC (100 mg/kg). For the purposes of evaluating the effects of the treatment on occurrence of alcohol withdrawal syndrome, the rats' susceptibility to onset of behavioral reactions (convulsions) due to emission of sound for 1 min by an electric bell (100 dB) was observed. The experiment was performed in all groups of rats one hour after treatment, and the results are given here below in Table 3.

The test system of experiment [2] is rats chronically administered 10% ethanol. Description: alcohol withdrawal syndrome: tremors by the Hunt-Majchrowicz method. The conditions noted are these: 100 mg/kg intraperitoneal, eight hours after suspension of ethanol; for number of tremors, 30 min: saline group 6 ± 2.5; for number of tremors, 60 min: saline group 8 ± 1.5; for number of tremors, 90 min: saline group 7 ± 1.5; for number of tremors, 120 min: saline group 8 ± 2.5. On the procedure:
The experiment was performed in Wistar male rats housed in groups of 5 per cage under conditions of constant light-dark alternation at 21°C and fed with standard laboratory feed. The animals were chronically administered 10% ethanol ad lib. for 6 months.
Eight hours after suspension of ethanol administration, the animals were divided into 4 groups of 5 rats each.
The first group (A) was administered saline solution intraperitoneally (15 ml/kg), the second group (B) was given VCGB (100 mg/kg), again intraperitoneally, the third group (C) received GHB (100 mg/kg), while the fourth group (D) was given IVC (100 mg/kg). For the purposes of assessing the effects induced by the above-mentioned treatments on occurrence of alcohol withdrawal syndrome, tremors were measured in the rat, where, as in man, they are the most characteristic sign of withdrawal syndrome. Evaluation of the number of tremors was done using the method described by Hunt and Majchrowicz (see Hunt W.A. and Majchrovicz E., Journal of Pharmacology and Experimental Therapeutics, 213, 9-12 (1980). The results are given here below in Table 2. TABLE 2.

Experiment [3] has as its system alcohol-dependent rats. Description: modified Vogel test (licks at shock-linked drinking vessel) in alcohol-dependent rats. The conditions noted are these: 100 mg/kg intraperitoneal at ethanol suspension; rats given 10% ethanol for 6 months; 10 min. exposure period; saline group 38.5 ± 8.5. On the procedure: Wistar male rats (housed in groups of 5 per cage) were used, kept in conditions of constant light-dark alternation at 21°C and fed with standard laboratory feed. The animals were chronically administered 10% ethanol ad lib. for 6 months.
To assess the activity, if any, of VCGB on the anxiety component involved in the compulsive act of searching for alcohol, a modified version of the Vogel test was used as described by Keppler D. et al. in Exp. Mol. Path. 9, 279 (1968).
Prior to the start of the experiment the animals were deprived of water for 48 h. At the time of ethanol treatment suspension, the animals were divided into 4 groups who were given the following intraperitoneal administrations: the first group (A) received saline solution (15 ml/kg), the second group (B) VCGB (100 mg/kg), the third group (C) GHB (100 mg/kg) and the fourth group (D) IVC ([…]).
On the day of the test, the animals were provided with two drinking vessels, one containing water and the other a mixture of water and ethanol (90:10 v/v) in bottles, the metal spouts of which were connected up to a source of electricity: after every 5 licks at the drinking vessel an electric shock (1 mA) was delivered for 10 min. which obliged the animal to withdraw, overcoming its desire to drink the water-alcohol solution. Refusal of the animals to drink the water-alcohol solution, confining their attention only to the vessel containing water alone, was taken as an indication of efficacy. In evaluating the results, the numbers of licks were compared for treated animals versus controls over the 10 min. exposure period.

Experiment [4] relates to lipoperoxidation in the CNS of rats. Description: lipoperoxidation in the CNS: cerebral malonaldehyde (MDA) after chronic ethanol treatment. The conditions noted are these: brain homogenate; 10% ethanol for two months, then 100 mg/kg single intraperitoneal dose; Control 0.543 ± 0.19, Ethanol 1.12 ± 0.13. Here is the method:
This study was conducted in order to assess what variations in malonaldehyde (MDA) occur following VCGB administration, MDA being a reliable and quantifiable index of the vulnerability of the central nervous system to damage due to free radicals as a result of the detrimental effects of ethanol.
The experiment was conducted in Wistar male rats housed in groups of 5 per cage under constant light-dark alternation at 21°C and fed with standard laboratory feed. Two groups of rats, each comprising 5 animals, were administered 10% ethanol in water throughout the treatment period. A third group of animals was kept on a standard laboratory diet without receiving any treatment. After two months of ethanol treatment the animals in the first group were administered VCGB in aqueous solution (100 mg/kg) in a single intraperitoneal dose. A few days after treatment, the animals were sacrificed and the brains promptly removed. MDA was measured using a modified micromethod described by Slater and Sawyer (Slater T. F. and Sawyer B. C., 1971, J. Biochem. Tokyo 8: 2180). […] The samples were placed in boiling water for 10 min, and after cooling absorbance was determined at 532 nm using a spectrophotometer. […] Proteins were measured by the Smith method (Smith et al., 1985, Analyt. Biochem. 27: 502), using bicinchoninic acid as reagent. […]

Take `CC(C)CC(=O)O[C@H](CC(=O)[O-])C[N+](C)(C)C` [IVC, isovaleryl L-carnitine]: in experiment [1], the “Animals with convulsions/animals treated” value was 6/10. Moreover, in experiment [2], the “number of tremors, 30 min” value stood at 4 ± 2; the “number of tremors, 60 min” value is 5 ± 2; the “number of tremors, 90 min” value was found to be 5 ± 1.5; the “number of tremors, 120 min” value is listed as 6 ±2. The compound further registered a Number of licks in experiment [3] of 35.2 ± 7.4.

As for `CC(C)CC(=O)O[C@H](CC(=O)OCCCC(=O)[O-])C[N+](C)(C)C` [VCGB, isovaleryl L-carnitine gamma-hydroxybutyrate], the “Animals with convulsions/animals treated” value in experiment [1] is 1/10. Also, the MDA in experiment [4] is 0.497 ± 0.15 nmol/mg protein. In experiment [2], the “number of tremors, 30 min” value came out at 0 ± 0.25; the “number of tremors, 60 min” value came to 0 ± 0; the “number of tremors, 90 min” value amounted to 0 ± 0.75; the “number of tremors, 120 min” value worked out at 0 ± 0.25. In experiment [3], this compound displayed a Number of licks of 5.6 ± 1.14.

With `O=C(O)CCCO` [GHB, gamma-hydroxybutyric acid], the “Animals with convulsions/animals treated” value in experiment [1] is on record as 4/10. Further, in experiment [2], the “number of tremors, 30 min” value amounted to 2 ± 0.5; the “number of tremors, 60 min” value is listed as 1 ± 0.5; the “number of tremors, 90 min” value turned out to be 2 ± 1; the “number of tremors, 120 min” value was 3 ± 1. Further, the Number of licks in experiment [3] is reported as 11 ± 2.4 ▲.

Values taken from patent publication EP0616805A1, “Use of acyl L-carnitine gamma-hydroxybutyrate for the treatment of alcoholism” (Sigma-Tau Industrie Farmaceutiche Riunite S.p.A., priority 1993, dated 1994).
